`COc1ccc(C2(CCCCl)S(=O)CCCS2=O)cc1OC` (stereo unspecified) showed a melting point of 163 to 164 °C.
`CN1CCN(c2ncnc3nc(-c4ccncc4)[nH]c23)CC1` gave a melting point of 333 to 335 °C.
Molecule `CC(=O)NC[C@H]1CN(c2ccc(N3CCC(=C(C#N)c4cccs4)CC3)c(F)c2)C(=O)O1` has a melting point of 260 to 263 °C.
In the case of `CN(C(=O)COc1nnc(-c2ccco2)s1)c1ccccc1`, the melting point is reported as 94 °C.
With `CN(C)S(=O)(=O)Oc1c(I)cc(C(C)(C)C)cc1CN` the melting point was 94 to 95 °C.
Molecule `CC(C)(C)CCC(=S)SC(C)(C)C` has a melting point of 98 to 99 °C.
Work on `O=S(=O)(Nc1cccc2c(Cl)c[nH]c12)c1ccc(CCCn2ccnc2)cc1` yielded a melting point of 86 to 90 °C.
`COC(=O)c1ccc(C(=O)c2cc3c(cc2C)OC2(C)C4CCC(C)(C4)C32C)cc1` (stereo unspecified) showed a melting point of 140 to 142 °C.
Molecule `CSc1nc([C@@H]2C[C@H]2c2nc3ccccc3n2C)cc(-n2nc(C)nc2C)n1` (relative stereo) has a melting point of 157 to 159 °C.
Work on `Cc1cnc(NN)nc1N` yielded a melting point of 174 to 175 °C.
Molecule `O=C(O)CCCC1NCC2CCCN3CCCC1C23` (stereo unspecified) has a melting point of 185 to 187 °C.
`CC(C)Oc1ccc(F)cc1OCCN1C(=O)c2ccccc2C1=O` gave a melting point of 68 °C.
For `COc1cc(Nc2c(C#N)cnc3ccc(/C=C/CCN4CCOCC4)cc23)cc(OC)c1OC`, the melting point was 86 to 87 °C.
With `COc1ccc2c(c1)c(C1=C(c3cn(C)c4ccc(OC)cc34)C(=O)N(C)C1=O)cn2C` the melting point was 114 to 117 °C.
Molecule `Oc1nc2cc(F)ccc2n2c(C(F)(F)F)nnc12` has a melting point of 298 to 302 °C.
Work on `Cc1cc(C(C)(C)C)c(O[Si](C)(C)Cl)c(C(C)(C)C)c1` yielded a melting point of 119 to 121 °C.
Molecule `O=C(CN1CCC(Cc2ccc(F)cc2)CC1)Nc1ccc2c(c1)NC(=O)CO2` has a melting point of 185 to 187 °C.
Work on `CC(=O)n1ncc(=O)[nH]c1=O` yielded a melting point of 150 °C.
`COc1ccc(OCCOCn2cnc3ncnc(N)c32)cc1` showed a melting point of 129 to 130 °C.
Molecule `C#CCNC(=O)/C=C\SC(=O)c1ccccc1` has a melting point of 131 to 134 °C.
`CCCCCn1c2ccc(C(=O)O)cc2c2ccc(SC)cc21` showed a melting point of 211 to 212 °C.
In the case of `O=C(c1ccc([N+](=O)[O-])cc1)c1c(Cl)cc(O)cc1Cl`, the melting point is reported as 118 to 120 °C.
For `Cn1nc(Cl)c2c(=O)n3c(nc21)SCC3`, the melting point was 222 °C.
For `Cc1nc2c3c(c(C(=O)N(C)CCO)cc2n1C)CCC1(Cc2ccccc2C1)N3`, the melting point was 194 to 195 °C.
`CCOC(CSc1ccc2c(c1)CCN2C(C)=O)OCC` gave a melting point of less than 52 °C.
Work on `N#CCCNC(=O)c1cccc(-c2ccc3c(c2)N(c2cccc(Cl)c2Cl)CC3)c1` yielded a melting point of 155 to 156 °C.
For `CCOC(=O)C1=COc2cc(C(C)(C)C)c(O)cc2O1`, the melting point was 222 °C.
For `CCOC(=O)c1cnc2sc3c(n12)CCCCC3`, the melting point was 73 to 74 °C.
For `CNc1cnc(N2CCOCC2)cc1-c1ccccc1C`, the melting point was 73.5 to 76 °C.
`CCOC(=O)C=Cc1cc([N+](=O)[O-])c(F)cc1Cl` showed a melting point of 86 to 88 °C.
Work on `CCCCNS(=O)(=O)CC(O)C(O)C(CC1CCCCC1)NC(=O)C(CC)Cc1c[nH]cn1` (stereo unspecified) yielded a melting point of 60 to 90 °C.
Work on `COc1cc(-c2nc3ccc(OCCN(C)C)cc3n2Cc2ccccc2Br)cc(OC)c1OC` yielded a melting point of 152 °C.
In the case of `O=C(O)Cc1c(C(=O)O)c2cc(Oc3ccc(Cl)cc3)ccc2n1-c1ccc(OC(F)(F)F)cc1`, the melting point is reported as 198 to 202 °C.
In the case of `O=C1OC2(CC(c3cccc(Oc4ccccc4)c3)=NO2)c2ccccc21` (stereo unspecified), the melting point is reported as 114 to 116 °C.
For `Cn1cc(O)c(=O)c2cccc(F)c21`, the melting point was 248 °C.
`Brc1cnn(Cc2ccccc2)c1` gave a melting point of 51 to 52 °C.
In the case of `CCC(=O)Oc1cc([N+](=O)[O-])cc([N+](=O)[O-])c1OC(=O)CC`, the melting point is reported as 72 to 73 °C.
`CNc1nc(-c2cccc(OCc3ccccc3)c2)c2cc(OC)c(OC)cc2n1` showed a melting point of 116 to 118 °C.
With `NS(=O)(=O)c1ccc(-c2cc(-c3c[nH]nc3-c3ccccn3)ccc2F)cc1` the melting point was 128 °C.
For `C/C(=C(\C#N)C(=S)/N=C/N(C)C)N1CCCN(c2ccc(C)c(F)c2)CC1`, the melting point was 254 to 256 °C.
`C#CCOC(=O)c1ncn2c1CN(C)C(=O)c1cc(F)ccc1-2` gave a melting point of 220 to 222 °C.
For `CC1(C)C(C=C(C#N)c2ccccc2)C1C(=O)O` (stereo unspecified), the melting point was 186 to 188 °C.
Work on `CCOC(=O)c1csc(C=O)n1` yielded a melting point of 65 to 67 °C.
For `CC(C)(C)NCC(O)c1ccc(OCc2ccccc2)c(C(N)=O)c1` (stereo unspecified), the melting point was 120 °C.
Molecule `CCOC(=O)c1nc2cccnc2n(-c2ccc(Cl)cc2)c1=O` has a melting point of 158 °C.
`CC(C(=O)CCc1ccc(Cl)cc1)n1cncn1` (stereo unspecified) showed a melting point of 77 to 78 °C.
Molecule `CCCCN(CCCC)Cc1cc(C(C)(C)C)cc(C(C)(C)C)c1O` has a melting point of 33 to 35 °C.
For `CC(C)(C)c1cc(CNC(=O)Nc2cccc(C(F)(F)F)c2)nn1-c1ccc(S(C)(=O)=O)cc1`, the melting point was 162 to 165 °C.
With `O=c1c(Cl)nsnc1Sc1ccccc1` the melting point was 99.5 to 102 °C.
Work on `CN1CCC(Cn2sc3cc(Cl)ccc3c2=O)CC1` yielded a melting point of 86 °C.
For `CC(=O)Oc1cc([N+](=O)[O-])ccc1CN1C(=O)c2ccccc2C1=O`, the melting point was 175 to 178 °C.

From a melting point compilation (Tetko et al.; mined from patent text by program, amines drawn as free bases though some values may be those of a salt)
